Reference: US20060160820A1, “Substituted piperazine carbamates” (Novo Nordisk A/S, priority 2003, published 2006)
Structures can show the parent of a compound that is named as a salt.

Test system: not given
Assay: not given
Conditions: not given

**Q.** For O=C(Oc1ccc(Oc2ccc(C(F)(F)F)cn2)cc1)N1CCN(CCCc2ccccn2)CC1, which melting point is on record?
**A.** 204 to 205 °C

**Q.** Which melting point does the source give for O=C(Oc1ccc(Oc2ccc(C(F)(F)F)cn2)cc1)N1CCN(CCCc2cccnc2)CC1 (as salt: hydrochloride) [Example 8, 4-(3-Pyridin-3-yl-propyl)-piperazine-1-carboxylic acid 4-(5-trifluoromethyl-pyridin-2-yloxy)-phenyl ester] here?
**A.** 203 to 208 °C

Target: T1, Hormone-sensitive lipase (HSL) (Homo sapiens, UniProt Q05469)
T1 construct: made in house
T1 sequence (Q05469 1-775 isoform Q05469-2): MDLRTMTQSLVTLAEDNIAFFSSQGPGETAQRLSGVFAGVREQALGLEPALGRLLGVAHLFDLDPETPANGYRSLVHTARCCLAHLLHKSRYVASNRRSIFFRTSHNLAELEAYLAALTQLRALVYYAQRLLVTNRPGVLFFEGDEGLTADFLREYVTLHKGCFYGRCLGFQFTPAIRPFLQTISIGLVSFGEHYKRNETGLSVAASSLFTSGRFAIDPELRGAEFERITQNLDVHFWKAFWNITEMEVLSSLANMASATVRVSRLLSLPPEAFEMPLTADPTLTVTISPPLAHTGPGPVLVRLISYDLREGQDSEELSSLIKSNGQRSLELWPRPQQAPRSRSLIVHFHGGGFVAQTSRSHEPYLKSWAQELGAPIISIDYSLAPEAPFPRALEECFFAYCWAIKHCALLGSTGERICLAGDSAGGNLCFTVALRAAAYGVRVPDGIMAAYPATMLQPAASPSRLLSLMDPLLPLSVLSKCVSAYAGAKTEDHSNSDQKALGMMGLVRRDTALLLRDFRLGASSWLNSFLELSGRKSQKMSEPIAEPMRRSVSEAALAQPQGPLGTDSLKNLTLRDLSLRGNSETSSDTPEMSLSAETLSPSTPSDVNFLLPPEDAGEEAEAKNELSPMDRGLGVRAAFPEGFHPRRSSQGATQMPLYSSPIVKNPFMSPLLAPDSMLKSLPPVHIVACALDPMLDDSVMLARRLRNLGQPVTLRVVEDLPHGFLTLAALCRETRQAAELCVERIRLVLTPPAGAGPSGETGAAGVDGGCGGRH
Assay: 3190.1: percent inhibition of hormone sensitive lipase, fluorochrome-labeled triacylglyceride emulsion
Format: biochemical
Conditions: 10 μM sample concentration; preincubated 30 min at 25° C.; 120 min incubation at 37° C.; remaining activity; read-out: 3190.1 HSL_FL % ACTIVITY (% activity relative to non-inhibited sample)
Text: The Hormone-sensitive lipase was provided by Dr. Cecilia Holm, from Lund University Sweden or produced and purified by Novo Nordisk (NN) using the reagents and protocols used by Dr. Holm. The substrates used are: ^3H-labeled triolein (TO) from Amersham, Buckinghamshire, U.K. cat No. TRA191; 5-20 Ci/mmol dissolved in toluene, triolein (Sigma, Cat. No. T-1740), fluorochrome-labeled triacylglyceride (cis-octadec-9-enoic acid 2-[12-(7-nitrobenzo[1,2,5]oxadiazol-4-ylamino)dodecanoyloxy]-1-cis-octadec-9-enoyloxymethyl-ethyl ester) prepared by Novo Nordisk (NN) by conventional methods, and 1,3-(di[^3H]-stearin), 2-(PEG-Biotin)glycerol prepared in collaboration with Amersham Pharmacia Biotech, UK and described in WO 01/073442. Phosphatidyl choline (PC) and phosphatidyl inositol (PI) are from Sigma (St Luis MO cat. Nos. P-3556 and P-5954 respectively). All other reagents are of commercial grade and obtained from various commercial sources.
3190.1: Assay for determination of percent inhibition of hormone sensitive lipase by compound at 10 μM sample concentration.
A lipid emulsion with fluorochrome-labeled triacylglyceride and phospholipid is used as substrate with a standard concentration of highly purified HSL (12 μg/mL initial concentration corresponding to 600 ng/mL final concentration). BSA is added as product acceptor. The transfer of the fluorochrome from the lipid phase to the water (BSA) phase changes the fluorescent properties of the fluorochrome. The changes can be monitored on a fluorimeter with an excitation wavelength of 450 nm and an emission wavelength of 545 nm.
Compound and HSL (20 μL compound, 10 μL enzyme and 70 μL PED-BSA buffer) is preincubated for 30 min at 25° C. before addition of substrate (100 μL). Amount of formed product is measured after 120 min incubation at 37° C.
Results are given as percent activity relative to a non-inhibited sample (no compound).

**Q.** For O=C(Oc1ccc(Cc2ccc(C(F)(F)F)cc2)cc1)N1CCN(CCc2ccccn2)CC1 [Example 1, 4-(2-Pyridin-2-yl-ethyl)-piperazine-1-carboxylic acid 4-(4-trifluoromethyl-benzyl)-phenyl ester], which activity at 10 µM is on record?
**A.** 6%

**Q.** Which activity at 10 µM does the source give for O=C(Oc1ccc(Cc2ccc(C(F)(F)F)cc2)cc1)N1CCN(Cc2ccccn2)CC1 [Example 2, 4-Pyridin-2-ylmethyl-piperazine-1-carboxylic acid 4-(4-trifluoromethyl-benzyl)-phenyl ester] here?
**A.** 4%

**Q.** For CC1(C)CC(=O)N(c2ccc(OC(=O)N3CCN(Cc4ccccn4)CC3)nc2)C(=O)C1 [Example 4, 4-Pyridin-2-ylmethyl-piperazine-1-carboxylic acid 4,4-dimethyl-2,6-dioxo-3,4,5,6-tetrahydro-2H-[1,3′]bipyridinyl-6′-yl ester], which activity at 10 µM is on record?
**A.** 64%

**Q.** For CC1(C)CC(=O)N(CCc2ccc(OC(=O)N3CCN(CCc4ccccn4)CC3)cc2)C(=O)C1 [Example 7, 4-(2-Pyridin-2-yl-ethyl)-piperazine-1-carboxylic acid 4-[2-(4,4-dimethyl-2,6-dioxo-piperidin-1-yl)-ethyl]-phenyl ester], which activity at 10 µM is on record?
**A.** 8%

**Q.** Which activity at 10 µM does the source give for O=C(Oc1ccc(Oc2ccc(C(F)(F)F)cn2)cc1)N1CCN(CCCc2cccnc2)CC1 [Example 8, 4-(3-Pyridin-3-yl-propyl)-piperazine-1-carboxylic acid 4-(5-trifluoromethyl-pyridin-2-yloxy)-phenyl ester] here?
**A.** 1%

**Q.** With O=C(Oc1ccc(Oc2ccc(C(F)(F)F)cn2)cc1)N1CCN(CCc2cccnc2)CC1 [Example 9, 4-(2-Pyridin-3-yl-ethyl)-piperazine-1-carboxylic acid 4-(5-trifluoromethyl-pyridin-2-yloxy)-phenyl ester] as the compound, how does the activity at 10 µM read?
**A.** 2%
